Literature values as cited in publication PMC9306982 (Journal of Food and Drug Analysis, 2019).

Experiments:
[1] = system: xanthine oxidase; conditions: for inhibitory activity against xanthine oxidase (in words): isolates from aerial part of Hyptis rhomboids
[2] = compared with caffeoylquinic acids
[3] = system: potassium oxonate-treated rat; conditions: oral administration

In the case of `O=C(O)/C=C/c1ccc(O)c(O)c1` [Compound 11, caffeic acid], the “xanthine oxidase inhibitory activity (in words)” value [1] is listed as “moderate” and the “bioavailability (in words)” value [2] is listed as “better”.
In the case of `COC(=O)C1(O)CC(O)C(OC(=O)C=Cc2ccc(O)c(O)c2)C(OC(=O)C=Cc2ccc(O)c(O)c2)C1` (centres unmarked) [methyl 4,5-dicaffeoylquinate], the “hypouricemic effect (in words)” value [3] is listed as “good”.
For `O=C(/C=C/c1ccc(O)c(O)c1)O/C=C\c1ccc(O)c(O)c1` [netpetoidin B], the “inhibitory activity against xanthine oxidase (in words)” value [1] is listed as “good”.
For epihyprhombin B, the “inhibitory activity against xanthine oxidase (in words)” value [1] is given as “good”.
